Each structure is given as a SMILES string.

This passage reports Activity, Drug metabolism and half-life results from ChEMBL document CHEMBL4190181 (Medchemcomm, 2016).

One series is filed under the species Rattus norvegicus. Kind of series: Positive allosteric modulation of AMPAR in Sprague-Dawley rat primary culture of cerebellar neurons assessed as potentiation of kainate-induced current at 10 uM by whole-cell patch clamp electrophysiological method relative to control. (In general: Patch clamp records ionic current or voltage across a cell membrane.)
Series [1] can be described thus: Drug level in rat liver microsomes treated with (+/-)-7-Chloro-5-(3-furanyl)-3-methyl-3,4-dihydro-2H-1,2,4-benzothiadiazine 1,1-dioxide assessed as CYP450-mediated metabolite formation at 10 uM after 60 mins by LC-MS/MS analysis. Format: ADME. As to conditions: 1 h.
Series [2] is described as follows: Half life of the compound in pH 7.4 buffer assessed as compound racemization. Type of series: physicochemical.

Consider `C[C@H]1Nc2c(-c3ccoc3)cc(Cl)cc2S(=O)(=O)N1`, for which, in the series filed under Rattus norvegicus, the Activity amounted to 488%. In addition, in series [1], the Drug metabolism result is “Metabolite_Detected”.

In the case of `CC1Nc2ccc(Cl)cc2S(=O)(=O)N1` (configuration not stated), the Activity in the series listed under Rattus norvegicus turned out to be 8%.

The term half-life denotes the time needed for the level to fall by half in the phase considered. In the case of `CC1Nc2c(-c3ccoc3)cc(Cl)cc2S(=O)(=O)N1` (racemic), in the series filed under Rattus norvegicus, the Activity came to 1600%. Besides, the half-life in series [2] is 1 h.

As for `C[C@@H]1Nc2c(-c3ccoc3)cc(Cl)cc2S(=O)(=O)N1`, in the series filed under Rattus norvegicus, the Activity was determined as 2590%. In addition, the Drug metabolism result in series [1] is “Metabolite_Detected”.
